The values below come from patent US9062041B2 (Bayer Intellectual Property GmbH, priority 2011, dated 2015).

What all share (assay type): cell-based
The target of test [1] is EP2 subtype of the human PGE2 receptor (Homo sapiens, UniProt P43116). Kind of test: cAMP antagonism test on the human EP2 receptor (HTRF cAMP detection). The settings on record: hEP2 receptor, read-out: Antagonism hEP2 IC50. The gist of the method:
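Read-out is a competitive HTRF for cAMP: lysate cAMP displaces cAMP-d2 from Eu cryptate-labelled antibody, and antagonism raises the 665/620 nm ratio. Compound (0.8 nM–16.5 μM) added to EP2 cells 20 min at RT before 60 min PGE2 challenge (3× stock 1.5 nM) with IBMX, followed by 20 min lysis.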
A general note: In TR-FRET formats the signal depends on donor and acceptor labels being close together.

Test [2] concerns the target EP4 subtype of the human PGE2 receptor (Homo sapiens, UniProt P35408). Kind of test: cAMP antagonism test on the human EP4 receptor (HTRF cAMP detection). The conditions noted are these: selectivity towards hEP4, IC50 measured by cAMP antagonism test. The gist of the method: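 Competitive HTRF cAMP read-out (cAMP-d2 vs Eu-cryptate anti-cAMP antibody, 665/620 nm ratio) on lysed human EP4 cells. Compound (0.8 nM–16.5 μM) applied 20 min at RT before 60 min PGE2 challenge (3× solution 0.3 nM, IBMX present); 20 min lysis precedes reading.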

For the next test, the target named is T1, human PGD receptor (Homo sapiens, UniProt Q13258).
T1 sequence (Q13258 1-359): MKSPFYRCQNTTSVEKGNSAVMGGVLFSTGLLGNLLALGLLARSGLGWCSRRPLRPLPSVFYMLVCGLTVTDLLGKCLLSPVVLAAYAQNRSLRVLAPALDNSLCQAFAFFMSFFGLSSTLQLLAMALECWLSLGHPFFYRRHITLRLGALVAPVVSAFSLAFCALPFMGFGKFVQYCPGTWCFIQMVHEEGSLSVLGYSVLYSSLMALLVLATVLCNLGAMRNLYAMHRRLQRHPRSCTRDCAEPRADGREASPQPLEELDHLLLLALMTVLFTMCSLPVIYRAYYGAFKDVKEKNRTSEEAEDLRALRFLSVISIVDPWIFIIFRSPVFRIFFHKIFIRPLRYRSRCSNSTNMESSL
Kind of test: cAMP antagonism test on the human prostaglandin D receptor (HTRF cAMP detection). The settings on record: selectivity towards hDP, IC50 measured by cAMP antagonism test. The gist of the method:
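HTRF competition read-out (665/620 nm ratio ×10000), where higher FRET means less cAMP, i.e. antagonism. Compounds (0.8 nM–16.5 μM) were preincubated 20 min at RT with cells and cAMP-d2, PGD2 (3× solution, 6 nM) in IBMX-containing PBS added for 30 min at RT, then cells lysed 20 min.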

SMILES strings stand for the structures.

Sequence of EP2 subtype of the human PGE2 receptor (P43116 whole entry): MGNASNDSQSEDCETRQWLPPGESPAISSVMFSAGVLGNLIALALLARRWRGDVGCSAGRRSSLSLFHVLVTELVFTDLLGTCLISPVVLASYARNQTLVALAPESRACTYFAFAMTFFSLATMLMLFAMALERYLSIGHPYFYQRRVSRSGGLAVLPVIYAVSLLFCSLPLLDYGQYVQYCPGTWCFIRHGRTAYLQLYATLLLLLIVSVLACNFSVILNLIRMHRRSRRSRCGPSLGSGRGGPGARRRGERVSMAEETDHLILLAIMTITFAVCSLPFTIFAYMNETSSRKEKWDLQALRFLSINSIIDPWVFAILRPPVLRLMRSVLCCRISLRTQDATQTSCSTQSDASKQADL
Sequence of EP4 subtype of the human PGE2 receptor (P35408 whole entry): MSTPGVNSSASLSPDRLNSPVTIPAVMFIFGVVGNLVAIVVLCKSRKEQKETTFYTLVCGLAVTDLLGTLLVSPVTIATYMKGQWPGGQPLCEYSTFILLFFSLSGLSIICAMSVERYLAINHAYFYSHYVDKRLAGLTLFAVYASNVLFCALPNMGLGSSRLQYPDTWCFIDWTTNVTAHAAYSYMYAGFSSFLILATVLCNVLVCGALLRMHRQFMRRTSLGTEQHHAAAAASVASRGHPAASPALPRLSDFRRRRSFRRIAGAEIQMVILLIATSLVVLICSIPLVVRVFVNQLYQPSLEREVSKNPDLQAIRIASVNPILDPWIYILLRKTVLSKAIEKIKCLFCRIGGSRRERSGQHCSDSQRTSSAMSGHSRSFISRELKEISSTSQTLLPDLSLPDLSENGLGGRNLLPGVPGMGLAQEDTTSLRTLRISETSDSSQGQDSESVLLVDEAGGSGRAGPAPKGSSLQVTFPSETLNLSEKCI

Consider `CCOCCNC(=O)c1ccc2nn(CC3CN(C(=O)c4ccc(Cl)cc4)C3)cc2c1OC` [Example 259, 2-{[1-(4-chlorobenzoyl)azetidin-3-yl]methyl}-N-(2-ethoxyethyl)-4-methoxy-2H-indazol-5-carboxamide], for which the IC50 (as a rule, the concentration that gives 50% inhibition) in test [1] came out at 25.6 nM. Moreover, the “Selectivity hEP2/hEP4” value in test [2] is “xxx (xxx > 100)”. Further, the “Selectivity hEP2/hDP” value on human PGD receptor is reported as “xxx (xxx > 100)”.

On to `COCCNC(=O)c1ccc2nn(CC3CCN(C(=O)c4ccc(-c5ccno5)cc4)CC3)cc2c1C` [Example 37, N-(2-methoxyethyl)-4-methyl-2-({1-[4-(isoxazol-5-yl)-benzoyl]piperidin-4-yl}methyl)-2H-indazol-5-carboxamide], for which the IC50 in test [1] turned out to be 104 nM. Besides, the “Selectivity hEP2/hEP4” value in test [2] is given as “xxx (xxx > 100)”. The “Selectivity hEP2/hDP” value on human PGD receptor is “xxx (xxx > 100)”.

On to `Cc1c(C(=O)NCC(F)(F)F)ccc2nn(CC3CCN(C(=O)c4ccc(-c5ccc(C(F)(F)F)nc5)cc4)CC3)cc12` [Example 321, 4-methyl-N-(2,2,2-trifluoroethyl)-2-[(1-{4-[6-(trifluoromethyl)pyridin-3-yl]-benzoyl}piperidin-4-yl)methyl]-2H-indazol-5-carboxamide], for which the IC50 in test [1] was found to be 101 nM. For the same molecule, in test [2], the “Selectivity hEP2/hEP4” value is on record as “xxx (xxx > 100)”. In addition, the “Selectivity hEP2/hDP” value at human PGD receptor is “xxx (xxx > 100)”.

For the molecule `COCCNC(=O)c1ccc2nn(CC3CCN(C(=O)c4ccc(OC(F)F)cc4F)CC3)cc2c1C` [Example 40, 2-({1-[4-(difluoro-methoxy)-2-fluoro-benzoyl]piperidin-4-yl}methyl)-N-(2-methoxyethyl)-4-methyl-2H-indazol-5-carboxamide], the IC50 in test [1] came to 11.5 nM. In addition, in test [2], the “Selectivity hEP2/hEP4” value is reported as “xxx (xxx > 100)”. The “Selectivity hEP2/hDP” value on human PGD receptor is “xxx (xxx > 100)”.

For `Cc1c(C(=O)NCCOCC(F)(F)F)ccc2nn(CC3CN(C(=O)c4ccc(Cl)cc4)C3)cc12` [Example 162, 2-{[1-(4-chlorobenzoyl)azetidin-3-yl]methyl}-4-methyl-N-[2-(2,2,2-trifluoro-ethoxy)ethyl]-2H-indazol-5-carboxamide], the IC50 in test [1] came out at 9.33 nM. For the same molecule, in test [2], the “Selectivity hEP2/hEP4” value is reported as “xxx (xxx > 100)”. The “Selectivity hEP2/hDP” value on human PGD receptor was “xxx (xxx > 100)”.

On to `COCCNC(=O)c1ccc2nn(CC3CCN(C(=O)c4ccc(-c5ccc(F)cc5F)cc4)CC3)cc2c1C` [Example 48, 2-({1-[(2′,4′-difluoro-biphenyl-4-yl)-carbonyl]piperidin-4-yl}methyl)-N-(2-methoxyethyl)-4-methyl-2H-indazol-5-carboxamide], for which, in test [1], the IC50 came to 5.59 nM. Also, the “Selectivity hEP2/hEP4” value in test [2] is recorded as “xxx (xxx > 100)”. In addition, the “Selectivity hEP2/hDP” value at human PGD receptor is on record as “xxx (xxx > 100)”.

As for `COc1ccc(-c2ccc(C(=O)N3CCC(Cn4cc5c(C)c(C(=O)NCC(F)(F)F)ccc5n4)CC3)cc2)nc1` [Example 326, 2-({1-[4-(5-methoxypyridin-2-yl)benzoyl]piperidin-4-yl}methyl)-4-methyl-N-(2,2,2-trifluoroethyl)-2H-indazol-5-carboxamide], the IC50 in test [1] amounted to 485 nM. Besides, in test [2], the “Selectivity hEP2/hEP4” value is reported as “xx (xx: 10-100)”. Further, the “Selectivity hEP2/hDP” value at human PGD receptor is “xx (xx: 10-100)”.

In the case of `COCCNC(=O)c1ccc2nn(CC3CCN(C(=O)c4ccc5cc(OC)ccc5c4)CC3)cc2c1C` [Example 336, N-(2-methoxyethyl)-2-{[1-(6-methoxy-2-naphthoyl)piperidin-4-yl]methyl}-4-methyl-2H-indazol-5-carboxamide], in test [1], the half-maximal inhibitory concentration (IC50) was 5.59 nM. The “Selectivity hEP2/hEP4” value in test [2] is listed as “xxx (xxx > 100)”. Besides, the “Selectivity hEP2/hDP” value at human PGD receptor is recorded as “xxx (xxx > 100)”.

With `COCCNC(=O)c1cc2cn(CC3CN(C(=O)c4ccc(Cl)cc4F)C3)nc2cc1C` [Example 183, 2-{[1-(4-chloro-2-fluorobenzoyl)azetidin-3-yl]methyl}-N-(2-methoxyethyl)-6-methyl-2H-indazol-5-carboxamide], the IC50 in test [1] is 46.6 nM. The “Selectivity hEP2/hEP4” value in test [2] is on record as “xxx (xxx > 100)”. For the same molecule, on human PGD receptor, the “Selectivity hEP2/hDP” value is reported as “xxx (xxx > 100)”.

As for `Cc1c(C(=O)NCC(F)(F)F)ccc2nn(CC3CCN(C(=O)c4ccc(S(F)(F)(F)(F)F)cc4)CC3)cc12` [Example 71, 4-methyl-2-({1-[4-(pentafluoro-λ^6-sulphanyl)benzoyl]piperidin-4-yl}methyl)-N-(2,2,2-trifluoroethyl)-2H-indazol-5-carboxamide], the concentration for half-maximal inhibition (IC50) in test [1] came out at 82.9 nM. In addition, the “Selectivity hEP2/hEP4” value in test [2] is listed as “xxx (xxx > 100)”. Moreover, the “Selectivity hEP2/hDP” value on human PGD receptor was “xxx (xxx > 100)”.

In the case of `COCCNC(=O)c1ccc2nn(C[C@H]3CCN(C(=O)c4ccc(Oc5ccc(C(F)(F)F)cc5)cc4)C3)cc2c1C` [Example 224, N-(2-methoxyethyl)-4-methyl-2-{[(S)-1-{4-[4-(trifluoromethyl)phenoxy]benzoyl}pyrrolidin-3-yl]methyl}-2H-indazol-5-carboxamide], in test [1], the IC50 worked out at 5.62 nM. For the same molecule, in test [2], the “Selectivity hEP2/hEP4” value is on record as “xxx (xxx > 100)”. Besides, the “Selectivity hEP2/hDP” value on human PGD receptor was “xxx (xxx > 100)”.

As to `COCCNC(=O)c1ccc2nn(CC3CN(C(=O)c4ccc(Oc5ccc(C(F)(F)F)cn5)cc4)C3)cc2c1C` [Example 174, N-(2-methoxyethyl)-4-methyl-2-{[1-(4-{[5-(trifluoromethyl)pyridin-2-yl]oxy}benzoyl)azetidin-3-yl]methyl}-2H-indazol-5-carboxamide], in test [1], the IC50 came out at 6.58 nM. In test [2], the “Selectivity hEP2/hEP4” value is recorded as “xxx (xxx > 100)”. Further, the “Selectivity hEP2/hDP” value on human PGD receptor was “xxx (xxx > 100)”.

As to `COCCNC(=O)c1ccc2nn(CC3CCN(C(=O)c4ccc(S(=O)(=O)C(F)(F)F)cc4)CC3)cc2c1C` [Example 25, N-(2-methoxyethyl)-4-methyl-2-[(1-{4-[(trifluoromethyl)-sulphonyl]benzoyl}-piperidin-4-yl)-methyl]-2H-indazol-5-carboxamide], in test [1], the IC50 was determined as 25.2 nM. In test [2], the “Selectivity hEP2/hEP4” value is given as “xxx (xxx > 100)”. The “Selectivity hEP2/hDP” value at human PGD receptor is “xxx (xxx > 100)”.

In the case of `COCCNC(=O)c1ccc2nn(CC3CCN(C(=O)c4cc(-c5ccccc5)no4)CC3)cc2c1C` [Example 13, N-(2-methoxyethyl)-4-methyl-2-({1-[(3-phenylisoxazol-5-yl)carbonyl]piperidin-4-yl}methyl)-2H-indazol-5-carboxamide], the IC50 in test [1] came out at 35.9 nM. In test [2], the “Selectivity hEP2/hEP4” value is given as “xxx (xxx > 100)”. In addition, the “Selectivity hEP2/hDP” value on human PGD receptor is reported as “xxx (xxx > 100)”.

For the molecule `COCCNC(=O)c1cc2cn(CC3CN(C(=O)c4ccc(Cl)cc4)C3)nc2cc1C` [Example 178, 2-{[1-(4-chlorobenzoyl)azetidin-3-yl]methyl}-N-(2-methoxyethyl)-6-methyl-2H-indazol-5-carboxamide], in test [1], the half-maximal inhibitory concentration (IC50) worked out at 68.3 nM. Besides, the “Selectivity hEP2/hEP4” value in test [2] is recorded as “xxx (xxx > 100)”. For the same molecule, the “Selectivity hEP2/hDP” value at human PGD receptor is “xxx (xxx > 100)”.

As for `COCCNC(=O)c1ccc2nn(CC3CCN(C(=O)c4ccc(Cl)cc4F)CC3)cc2c1OC` [Example 271, 2-{[1-(4-chloro-2-fluorobenzoyl)piperidin-4-yl]methyl}-4-methoxy-N-(2-methoxyethyl)-2H-indazol-5-carboxamide], in test [1], the IC50 came out at 33.5 nM. In addition, in test [2], the “Selectivity hEP2/hEP4” value is “xxx (xxx > 100)”. Besides, on human PGD receptor, the “Selectivity hEP2/hDP” value is on record as “xxx (xxx > 100)”.

As to `Cc1c(C(=O)NCC(C)OCC2CC2)ccc2nn(CC3CCN(C(=O)c4ccc(-c5ccc(F)cc5)cc4)CC3)cc12` (racemic) [Example 105, (+/−)-N-[2-(cyclo-propylmethoxy)-propyl]-2-({l-[(4′-fluorobiphenyl-4-yl)carbonyl]-piperidin-4-yl}-methyl)-4-methyl-2H-indazol-5-carboxamide], the IC50 in test [1] is 285 nM. In addition, the “Selectivity hEP2/hEP4” value in test [2] was “xx (xx: 10-100)”. Moreover, the “Selectivity hEP2/hDP” value on human PGD receptor was “xx (xx: 10-100)”.

Turning to `COCCNC(=O)c1cc2cn(CC3CN(C(=O)c4ccc(C5CC5)cc4)C3)nc2cc1C` [Example 200, 2-{[1-(4-cyclopropylbenzoyl)azetidin-3-yl]methyl}-N-(2-methoxyethyl)-6-methyl-2H-indazol-5-carboxamide], the IC50 in test [1] stood at 15.1 nM. Besides, the “Selectivity hEP2/hEP4” value in test [2] is listed as “xxx (xxx > 100)”. Also, the “Selectivity hEP2/hDP” value at human PGD receptor is “xxx (xxx > 100)”.

Take `COCCNC(=O)c1ccc2nn(CC3CCN(C(=O)c4ccc(C#N)cc4)CC3)cc2c1C` [Example 33, 2-{[1-(4-cyano-benzoyl)piperidin-4-yl]methyl}-N-(2-methoxyethyl)-4-methyl-2H-indazol-5-carboxamide]: the IC50 in test [1] was 34.2 nM. Moreover, the “Selectivity hEP2/hEP4” value in test [2] is given as “xxx (xxx > 100)”. The “Selectivity hEP2/hDP” value at human PGD receptor is given as “xxx (xxx > 100)”.
